Results: patent US9993459B2, “Selective HDAC6 inhibitors and uses thereof” (Universiteit Gent, priority 2015, dated 2018)
pIC50: −log10 of the molar value. Like-named read-outs stand apart in the source and are kept apart here.

Legend:
Type in all cases: biochemical
HDAC7 = target: T1, HDAC7 (Homo sapiens, UniProt Q8WUI4); assay: In vitro HDAC isozyme selectivity screen: HDAC7; conditions: for pIC50: Table 2
T1 sequence (Q8WUI4 1-952): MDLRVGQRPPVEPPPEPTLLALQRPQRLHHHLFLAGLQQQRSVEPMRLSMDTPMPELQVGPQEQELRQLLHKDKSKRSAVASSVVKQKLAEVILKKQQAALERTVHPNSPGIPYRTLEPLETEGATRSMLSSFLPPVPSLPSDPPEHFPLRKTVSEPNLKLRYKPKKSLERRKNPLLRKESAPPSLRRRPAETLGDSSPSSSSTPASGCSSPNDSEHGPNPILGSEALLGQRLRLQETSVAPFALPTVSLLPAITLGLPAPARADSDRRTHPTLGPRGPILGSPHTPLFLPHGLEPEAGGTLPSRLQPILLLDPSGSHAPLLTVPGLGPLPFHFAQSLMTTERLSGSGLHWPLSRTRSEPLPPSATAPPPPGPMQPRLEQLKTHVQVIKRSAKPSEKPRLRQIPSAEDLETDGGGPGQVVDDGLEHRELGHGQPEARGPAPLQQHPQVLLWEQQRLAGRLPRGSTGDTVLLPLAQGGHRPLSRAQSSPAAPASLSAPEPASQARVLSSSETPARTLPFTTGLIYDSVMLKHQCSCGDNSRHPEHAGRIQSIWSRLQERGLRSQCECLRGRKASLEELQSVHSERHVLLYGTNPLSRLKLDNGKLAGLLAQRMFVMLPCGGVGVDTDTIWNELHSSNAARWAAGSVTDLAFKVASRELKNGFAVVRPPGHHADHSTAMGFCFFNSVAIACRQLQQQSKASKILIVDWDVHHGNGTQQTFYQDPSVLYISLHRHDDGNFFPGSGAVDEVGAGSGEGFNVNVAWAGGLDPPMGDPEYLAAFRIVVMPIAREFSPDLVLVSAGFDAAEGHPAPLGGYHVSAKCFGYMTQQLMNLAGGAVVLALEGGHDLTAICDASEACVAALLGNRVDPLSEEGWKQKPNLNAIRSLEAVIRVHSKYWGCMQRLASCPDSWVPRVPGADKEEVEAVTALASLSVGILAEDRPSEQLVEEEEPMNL

HDAC6 = target: T2, HDAC6 (Homo sapiens, UniProt Q9UBN7); assay: In vitro HDAC6 inhibition; conditions: for inhibition at 10 µM: HDAC6, 10 μM
T2 sequence (Q9UBN7 1-1215): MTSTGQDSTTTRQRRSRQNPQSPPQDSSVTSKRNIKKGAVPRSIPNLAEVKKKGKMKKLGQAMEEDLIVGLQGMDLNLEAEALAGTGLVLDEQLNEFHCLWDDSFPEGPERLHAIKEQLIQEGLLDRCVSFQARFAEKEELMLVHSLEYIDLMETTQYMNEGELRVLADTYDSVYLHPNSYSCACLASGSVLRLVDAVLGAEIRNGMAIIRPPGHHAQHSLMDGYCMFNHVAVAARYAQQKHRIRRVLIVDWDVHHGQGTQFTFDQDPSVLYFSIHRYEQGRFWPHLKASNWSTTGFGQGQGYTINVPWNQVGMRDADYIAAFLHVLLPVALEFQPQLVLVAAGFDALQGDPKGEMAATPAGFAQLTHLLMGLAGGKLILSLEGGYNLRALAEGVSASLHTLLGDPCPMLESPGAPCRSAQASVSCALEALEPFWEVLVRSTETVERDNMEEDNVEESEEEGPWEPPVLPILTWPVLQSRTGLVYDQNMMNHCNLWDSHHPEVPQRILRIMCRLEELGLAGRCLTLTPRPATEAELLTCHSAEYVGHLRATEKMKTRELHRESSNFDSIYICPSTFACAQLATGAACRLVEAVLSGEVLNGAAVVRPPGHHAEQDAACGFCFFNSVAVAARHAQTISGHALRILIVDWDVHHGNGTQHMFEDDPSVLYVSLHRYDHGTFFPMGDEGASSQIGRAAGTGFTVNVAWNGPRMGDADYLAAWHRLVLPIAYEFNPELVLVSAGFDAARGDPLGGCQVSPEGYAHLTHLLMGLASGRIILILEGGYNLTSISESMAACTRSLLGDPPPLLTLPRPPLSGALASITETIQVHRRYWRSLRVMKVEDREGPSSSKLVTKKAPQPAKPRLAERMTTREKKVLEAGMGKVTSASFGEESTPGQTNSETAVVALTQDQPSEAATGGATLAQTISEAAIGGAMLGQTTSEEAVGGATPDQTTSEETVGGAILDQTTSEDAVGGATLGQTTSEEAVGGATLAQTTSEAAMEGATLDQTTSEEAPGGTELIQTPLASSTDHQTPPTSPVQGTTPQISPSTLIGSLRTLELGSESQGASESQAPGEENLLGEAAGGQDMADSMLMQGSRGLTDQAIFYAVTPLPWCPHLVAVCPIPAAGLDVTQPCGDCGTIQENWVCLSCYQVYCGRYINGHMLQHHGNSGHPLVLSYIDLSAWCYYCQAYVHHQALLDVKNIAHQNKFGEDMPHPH

HDAC1 = HDAC1 (Homo sapiens, UniProt Q13547); assay: In vitro HDAC isozyme selectivity screen: HDAC1; conditions: for pIC50: Table 2
HDAC1, sequence (Q13547 whole entry, species assumed): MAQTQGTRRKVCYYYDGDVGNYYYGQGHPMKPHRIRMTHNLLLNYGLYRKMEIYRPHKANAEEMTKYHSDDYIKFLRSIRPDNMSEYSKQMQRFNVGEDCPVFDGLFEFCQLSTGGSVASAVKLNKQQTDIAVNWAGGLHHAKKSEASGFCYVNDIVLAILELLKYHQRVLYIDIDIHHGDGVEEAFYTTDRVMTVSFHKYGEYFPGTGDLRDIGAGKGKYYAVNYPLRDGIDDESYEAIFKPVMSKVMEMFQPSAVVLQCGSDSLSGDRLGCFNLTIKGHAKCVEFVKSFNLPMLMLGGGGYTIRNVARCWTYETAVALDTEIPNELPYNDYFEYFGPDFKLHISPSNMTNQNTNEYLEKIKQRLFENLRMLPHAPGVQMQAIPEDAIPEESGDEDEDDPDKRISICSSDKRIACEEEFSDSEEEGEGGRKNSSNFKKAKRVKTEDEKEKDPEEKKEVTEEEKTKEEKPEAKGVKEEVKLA

HDAC4 = HDAC4 (Homo sapiens, UniProt P56524); assay: In vitro HDAC isozyme selectivity screen: HDAC4; conditions: for pIC50: Table 2
HDAC4, sequence (P56524 whole entry, species assumed): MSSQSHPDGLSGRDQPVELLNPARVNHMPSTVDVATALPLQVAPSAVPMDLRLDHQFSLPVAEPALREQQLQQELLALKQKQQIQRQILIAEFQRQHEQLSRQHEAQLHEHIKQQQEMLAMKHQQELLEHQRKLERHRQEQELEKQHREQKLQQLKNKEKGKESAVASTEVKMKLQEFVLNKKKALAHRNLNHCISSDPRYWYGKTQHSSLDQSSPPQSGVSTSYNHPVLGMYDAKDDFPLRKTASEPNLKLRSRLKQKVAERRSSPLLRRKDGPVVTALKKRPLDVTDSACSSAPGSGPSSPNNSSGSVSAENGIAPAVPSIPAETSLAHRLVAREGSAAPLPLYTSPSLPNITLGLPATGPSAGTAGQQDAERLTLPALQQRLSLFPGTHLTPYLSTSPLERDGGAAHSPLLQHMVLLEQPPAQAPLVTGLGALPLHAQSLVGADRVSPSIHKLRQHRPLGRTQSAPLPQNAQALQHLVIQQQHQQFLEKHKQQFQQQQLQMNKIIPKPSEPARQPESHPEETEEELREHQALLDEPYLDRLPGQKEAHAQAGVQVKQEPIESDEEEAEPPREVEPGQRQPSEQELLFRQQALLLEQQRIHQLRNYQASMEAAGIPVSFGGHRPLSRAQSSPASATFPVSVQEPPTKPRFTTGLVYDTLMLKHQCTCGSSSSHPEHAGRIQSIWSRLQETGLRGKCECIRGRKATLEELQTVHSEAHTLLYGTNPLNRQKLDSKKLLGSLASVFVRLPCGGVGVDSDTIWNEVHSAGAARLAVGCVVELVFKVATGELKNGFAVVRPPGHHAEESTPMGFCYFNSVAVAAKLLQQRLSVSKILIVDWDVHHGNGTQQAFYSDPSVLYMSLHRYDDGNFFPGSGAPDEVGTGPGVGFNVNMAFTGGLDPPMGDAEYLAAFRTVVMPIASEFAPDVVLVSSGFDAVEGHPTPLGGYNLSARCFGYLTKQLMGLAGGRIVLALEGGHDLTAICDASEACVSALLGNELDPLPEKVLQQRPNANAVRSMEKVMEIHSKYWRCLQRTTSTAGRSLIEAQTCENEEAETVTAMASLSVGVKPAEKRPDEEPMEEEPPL

| SMILES | pIC50 (HDAC7) | inhibition at 10 µM (HDAC6) | pIC50 (HDAC6; HDAC6, Table 1, read-out: IC50) | pIC50 (HDAC1) | pIC50 (HDAC4) | effect at 100 μM, HDAC7 (HDAC7; 100 μM) | pIC50 (HDAC6; Table 2, read-out: IC50 HDAC6) | effect at 100 μM, HDAC1 (HDAC1; 100 μM) | effect at 100 μM, HDAC4 (HDAC4; 100 μM) |
| --- | --- | --- | --- | --- | --- | --- | --- | --- | --- |
| O=C(NO)c1ccc(NCc2csc3cc(Br)ccc23)cc1 [Compound 13a, 6-bromo-3-[(4-hydroxycarbamoylphenyl)aminomethyl]-benzothiophene] | 4.92 | 99.3% | 7.19 | 5.47 | 4.51 |  |  |  |  |
| O=C(NO)c1ccc(NCc2csc3ccc(Br)cc23)cc1 [Compound 7b, 5-bromo-3-[(4-hydroxycarbamoylphenyl)aminomethyl]-benzothiophene] |  | 99.2% | 7.43 |  | < 4.00 | less than 50% | 7.43 | less than 50% | less than 50% |
| O=C(NO)c1ccc(NCc2csc3ccccc23)cc1 [Compound 7a, 3-[(4-hydroxycarbamoylphenyl)aminomethyl]benzothiophene] | 5.28 | 99.8% | 7.85 | 5.12 | 5.00 |  |  |  |  |
